Experimental data reported in patent US10970594B2, “Magnetic resonance maps for analyzing tissue” (Tel HaShomer Medical Research Infrastructure and Services …, priority 2011, dated 2021).

How the values were obtained:
GBM lesion = experiment: Vessel function maps of GBM patients given Bevacizumab IV after failing first line chemoradiation (Example 2, preliminary results); type: in vivo, human; details: for change of the lesion in the map: patient #1, GBM lesion of FIG. 8
Experimental: Two GBM patients who failed first line chemoradiation were given Bevacizumab as an IV infusion, 10 mg/kg body weight every 2 weeks (standard Bevacizumab regimen for GBM patients).
The patients were recruited before Bevacizumab treatment was initiated. They underwent the first MRI exam prior to treatment. Second and third MRI exams are performed 1 week and 1 month after the administration of the first Bevacizumab dose. Two more MRI exams are performed at 3 and 5 months post initiation of treatment.
Vessel function maps were calculated at 15 and 75 min after contrast injection. Examples of two patients with 3 GBM lesions with different presentations of response to Avastin, are shown below. The response pattern to Avastin and the physiological meaning of the observed changes in the maps, are being studied.

recurrent GBM = experiment: Delayed enhancement subtraction maps and T1-weighted MRI of patients treated with bevacizumab (Example 5); type: in vivo, human
Experimental: In the present example, the delayed enhancement subtraction maps of the present embodiments are used for analyzing brain MRI of subjects treated with bevacizumab.
Four patients were subjected to bevacizumab (Avastin®) treatment. High resolution T1-weighted MR images were acquired and subtraction maps were calculated from these images. Acquisition sessions were held before treatment and several times after treatment. The predetermined time interval between two subtracted images was 75 minutes. Histological analysis was performed with tissue samples obtained from the on of these patients which underwent surgery after treatment with Avastin.

[1] = common adverse effects hypertension and proteinuria; thromboembolic disease and hemorrhage infrequent; cited from earlier work
[2] = patient #2, FIG. 12, 1 week after the first treatment
[3] = patient of FIGS. 30A-F, at 3 months
[4] = patient of FIGS. 30A-F, first month after initiation of treatment
[5] = patient of FIGS. 31A-F, first 3 months
[6] = patient of FIGS. 32A-H, at 1 month
[7] = patient of FIGS. 32A-H, at 3 months, after re-irradiation
[8] = patient of FIGS. 32A-H, first week

bevacizumab
change of the lesion in the map (GBM lesion; 1 month follow-up): minor changes
change of the lesion in the map (GBM lesion; first week of treatment): became more prominently blue
blue component (GBM lesion; patient #1, recurrent GBM lesion of FIG. 10, 1 month later): increase
blue component (GBM lesion; patient #1, recurrent GBM lesion of FIG. 10, first week post treatment): decrease
blue component (GBM lesion; [2]): has not decreased
edema (GBM lesion; [2]): somewhat relieved
pressure on the brain (GBM lesion; [2]): relieved
red component of the lesion (GBM lesion; [2]): significantly decreased
blue component (GBM lesion; patient #2, FIG. 12, 3-months follow-up, in parallel to clinical deterioration, no sign of progression on conventional MRI): continued to increase
enhancing lesion decreased by, of its original volume (recurrent GBM; [3]): about 57%
red volume decreased by (recurrent GBM; [3]): about 40%
blue volume increased by (recurrent GBM; patient of FIGS. 30A-F, at 3 months, suggesting progression): about 25%
blue volume (recurrent GBM; [4]): stable
enhancing lesion volume (on T1-Gd) decreased by (recurrent GBM; [4]): about 50%
red volume decreased by (recurrent GBM; [4]): about 50%
blue volume (recurrent GBM; patient of FIGS. 31A-F, 5 months MRI, after re-irradiation during bevacizumab treatment): decreased significantly
blue volume (recurrent GBM; [5]): increased significantly
edema (recurrent GBM; [5]): decreased
lesion volume on T1-Gd (recurrent GBM; [5]): stable
blue volume increased by (recurrent GBM; [6]): 200%
enhancing volume increased by (recurrent GBM; [6]): 70%
red volume decreased by (recurrent GBM; [6]): about 50%
blue volume increased by (recurrent GBM; [7]): over 500%
enhancing lesion volume increased by (recurrent GBM; [7]): over 500%
red volume increased by (recurrent GBM; [7]): over 500%
blue volume decreased by (recurrent GBM; [8]): 20%
enhancing lesion volume (on T1-Gd) (recurrent GBM; [8]): stable
red volume increased by (recurrent GBM; [8]): 30%
tolerability [1]: generally well tolerated
